Experimental data taken from US12605539B2, “Methods and systems for delivering drugs through skin of a body” (PASSPORT TECHNOLOGIES, INC., priority 2019, dated 2026).
Values belong to the compound of their own block, whether it stands above or below them.

Legend:
Format in all cases: in vivo, hairless Guinea pigs
[1] = Blood concentration of polysaccharide (Fondaparinux) after microporation patch (FIG. 13); details: 4 ms pulses
Method: The patch 102 used for FIG. 13 graphs 1300 and 1320 has a nonwoven matrix, a thickness of 180 μm, weight of 18 g/m^2, WHC of 17 mg/cm^2, a drug of 0.01 mg/cm^2, and a total solids level of 6.1 mg/cm^2. An energy pulse of 6.3 mJ and 5.2 mJ per filament to create between about 200 and 400 pathways via microporation having a 1 cm^2 treated area of between about 5 and 10% per square centimeter of skin, respectively.
(§1) The graph 1300 includes the concentration of the polysacharride (for example, Fondaparinux) in micrograms/milliliter (μg/mL) along the y-axis and time in hours (hr) along the x-axis. […] The line 1302 represents the patch 102 having a formulation of 2.5 mg of the polysacharride applied with the patch 102 and microporation parameters described above. The line 1304 represents the patch 102 having a formulation of 5.0 mg of the polysacharride applied with the patch 102 and microporation parameters described above. The line 1306 represents the patch 102 having a formulation of 7.5 mg of the polysacharride applied with the patch 102 and microporation parameters described above. Each of the three lines 1302, 1304, and 1306 follow the same general trend of increasing to a peak concentration value and then gradually decreasing in concentration. The line 1306 has the highest concentration values, followed by line 1304 and then line 1302.
as §1, with “1320” for “1300”, “1322” for “1302”, “1324” for “1304”, “1326” for “1306”, “1322, 1324,” for “1302, 1304,”, “1322.” for “1302.”

[2] = Blood concentration of peptide (Teriparatide) after microporation patch (FIG. 17); details: hairless, guinea pig, topical, API 0.2 mg/cm^2 + 0.5 mg sucrose; for bioavailability: read-out: bioavailability (BA); for Cmax: read-out: maximum concentration (Cmax)
Method: Table 15 identifies two groups (group 4 and group 6) that both use stainless steel filaments 200 and create 200 and 400 pathways, respectively, having applied an energy pulse of 9.3 mJ per filament with a treated area of about 10% per square centimeter of skin for 0.5 cm2 and 1.0 cm^2, respectively. The patch 102 used for the administration of the peptide shown in graph 1700 has a thickness of 38 μm, a weight of 12 g/m^2, a WHC of 4 mg/cm^2, an API of 0.2 mg/cm^2, and a total solid weight of about 0.7 mg/cm^2.
The graph 1700 includes the concentration of the peptide in ng/mL along the y-axis and time in hours (hr) along the x-axis. […] The line 1702 represents the patch 102 and microporation parameters of group 4 described above. The line 1704 represents the patch 102 and microporation parameters of group 6 described above.

[3] = Blood concentration of Somatropin after microporation patch (FIG. 18); details: patch 0.5 mg, 1.0 cm^2
Text: The microporation occurs according to the parameters in Table 17. […] 200 Wide filaments are double the width of standard one (2×50 micrometers) so the energy pulse of 5.2 mJ and 9.3 mJ per filament, thus providing the same current density/flux, and similar power used.
The graph 1800 includes the concentration of the peptide in ng/mL along the y-axis and time in hours (hr) along the x-axis. […] The line 1802 represents the group 1 parameters from Tables 17 and 18. The line 1804 represents the group 2 parameters from Tables 17 and 18. The line 1806 represents the group 3 parameters from Tables 17 and 18. The line 1808 represents the group 4 parameters from Tables 17 and 18. Each of the four lines 1802, 1804, 1806, and 1808 follow the same general trend of increasing to a peak concentration value and then gradually decreasing in concentration. The line 1808 generally has the highest concentration values, followed by line 1802, then line 1804, and finally line 1806. It is noted that the line 1804 exceeds line 1806 from between about 2 hours to about 3 hours.

[4] = 0.2 mg/cm^2, group 4: 200 pores, 0.5 cm^2, 9.3 mJ/filament
[5] = 0.2 mg/cm^2, group 6: 400 pores, 1.0 cm^2, 9.3 mJ/filament
[6] = group 1: 400 pores, 5.7 mJ/filament (Table 17)
[7] = group 2: 400 pores, 9.3 mJ/filament
[8] = group 3: 200 wide pores, 5.2 mJ/filament
[9] = group 4: 200 wide pores, 9.3 mJ/filament

area under the curve (AUC) ([1]; patch 2.5 mg, 200 pathways): 72800 ng·h/mL | bioavailability ([1]; patch 2.5 mg, 200 pathways): 170.9% | maximum concentration ([1]; patch 2.5 mg, 200 pathways): 5.1 µg/mL | AUC ([1]; patch 2.5 mg, 400 pathways): 97300 ng·h/mL | bioavailability ([1]; patch 2.5 mg, 400 pathways): 228.5% | maximum concentration ([1]; patch 2.5 mg, 400 pathways): 8.0 µg/mL | AUC ([1]; patch 5.0 mg, 200 pathways): 100900 ng·h/mL | bioavailability ([1]; patch 5.0 mg, 200 pathways): 118.4% | maximum concentration ([1]; patch 5.0 mg, 200 pathways): 6.7 µg/mL | AUC ([1]; patch 5.0 mg, 400 pathways): 125200 ng·h/mL | bioavailability ([1]; patch 5.0 mg, 400 pathways): 146.9% | maximum concentration ([1]; patch 5.0 mg, 400 pathways): 10.5 µg/mL | AUC ([1]; patch 7.5 mg, 200 pathways): 152300 ng·h/mL | bioavailability ([1]; patch 7.5 mg, 200 pathways): 119.2% | maximum concentration ([1]; patch 7.5 mg, 200 pathways): 9.1 µg/mL | AUC ([1]; patch 7.5 mg, 400 pathways): 145800 ng·h/mL | bioavailability ([1]; patch 7.5 mg, 400 pathways): 114.1% | maximum concentration ([1]; patch 7.5 mg, 400 pathways): 11.5 µg/mL
Compound: CO[C@H]1O[C@H](COS(=O)(=O)O)[C@@H](O[C@@H]2O[C@@H](C(=O)O)[C@@H](O[C@H]3O[C@H](COS(=O)(=O)O)[C@@H](O[C@@H]4O[C@H](C(=O)O)[C@@H](O[C@H]5O[C@H](COS(=O)(=O)O)[C@@H](O)[C@H](O)[C@H]5NS(=O)(=O)O)[C@H](O)[C@H]4O)[C@H](OS(=O)(=O)O)[C@H]3NS(=O)(=O)O)[C@H](O)[C@H]2OS(=O)(=O)O)[C@H](O)[C@H]1NS(=O)(=O)O [Fondaparinux]

AUC [2, 4]: 3260 ng·h/mL | bioavailability [2, 4]: 37.4% | Cmax [2, 4]: 9.16 ng/mL | AUC [2, 5]: 2210 ng·h/mL | bioavailability [2, 5]: 25.4% | Cmax [2, 5]: 11.2 ng/mL
Compound: CC[C@H](C)[C@H](NC(=O)[C@H](CCC(=O)O)NC(=O)[C@H](CO)NC(=O)[C@@H](NC(=O)[C@@H](N)CO)C(C)C)C(=O)N[C@@H](CCC(N)=O)C(=O)N[C@@H](CC(C)C)C(=O)N[C@@H](CCSC)C(=O)N[C@@H](Cc1cnc[nH]1)C(=O)N[C@@H](CC(N)=O)C(=O)N[C@@H](CC(C)C)C(=O)NCC(=O)N[C@@H](CCCCN)C(=O)N[C@@H](Cc1cnc[nH]1)C(=O)N[C@@H](CC(C)C)C(=O)N[C@@H](CC(N)=O)C(=O)N[C@@H](CO)C(=O)N[C@@H](CCSC)C(=O)N[C@@H](CCC(=O)O)C(=O)N[C@@H](CCCN=C(N)N)C(=O)N[C@H](C(=O)N[C@@H](CCC(=O)O)C(=O)N[C@@H](Cc1c[nH]c2ccccc12)C(=O)N[C@@H](CC(C)C)C(=O)N[C@@H](CCCN=C(N)N)C(=O)N[C@@H](CCCCN)C(=O)N[C@@H](CCCCN)C(=O)N[C@@H](CC(C)C)C(=O)N[C@@H](CCC(N)=O)C(=O)N[C@@H](CC(=O)O)C(=O)N[C@H](C(=O)N[C@@H](Cc1cnc[nH]1)C(=O)N[C@@H](CC(N)=O)C(=O)N[C@@H](Cc1ccccc1)C(=O)O)C(C)C)C(C)C [Teriparatide]

Compound: Somatropin
AUC [3, 6]: 87.1 ng·h/mL | Cmax [3, 6]: 20.4 ng/mL | Tmax [3, 6]: 1.3 h | bioavailability (BA) [3, 6]: 35.8% | AUC [3, 7]: 90.1 ng·h/mL | Cmax [3, 7]: 16.1 ng/mL | Tmax [3, 7]: 1.8 h | bioavailability (BA) [3, 7]: 37.0% | AUC [3, 8]: 78.1 ng·h/mL | Cmax [3, 8]: 16.4 ng/mL | Tmax [3, 8]: 1.5 h | bioavailability (BA) [3, 8]: 32.1% | AUC [3, 9]: 94.9 ng·h/mL | Cmax [3, 9]: 22.6 ng/mL | Tmax [3, 9]: 1.5 h | bioavailability (BA) [3, 9]: 39.0%
